In a melting point compilation (Tetko et al.; mined from patent text by program, amines drawn as free bases though some values may be those of a salt):

SMILES | melting point [°C]
CC(=O)OCC1Cc2cccc3c(C4=C(c5cn(C)c6ccccc56)C(=O)OC4=O)cn(c23)C1 (configuration not stated) | 198 to 200
O=C(O)Cn1c(=S)sc2ccccc21 | 187 to 189
COc1ccccc1Nc1cc(-c2c(-c3cccc(C)c3)nc3cccnn23)ccn1 | 157 to 158
CC(C)(O)Cn1c(COc2ccccc2)nc2c(N)nc3ccccc3c21 | 200 to 201
COC(=O)C1(C(F)(F)CCCCOc2ccc(Cl)cc2)CO1 (configuration not stated) | 40 to 48
CC(C)c1n[nH]c2c(NCc3cccc(O)c3)ncnc12 | 220 to 221
CC(C)(C)C(O)C(Cn1cncn1)Oc1ccc(Cl)cc1 (configuration not stated) | 103
NN=CNc1nc(CSCCN=CNS(=O)(=O)c2ccc(Br)cc2)cs1 | 107 to 110
CSc1cc(C(=O)c2cc(C(C)(C)C)c(O)c(C(C)(C)C)c2)cn1C | 173 to 175
O=C(/C=C/C=C(c1ccccc1C(F)(F)F)c1ccccc1C(F)(F)F)NCCCCc1cccnc1 | 110 to 112
CCCCCNC(=O)N1CCC(c2nc(C3=NOC(c4ccccc4)C3)cs2)CC1 (configuration not stated) | 132 to 134
O=C1COC(CCOC(=O)c2ccccc2)(c2ccc(F)c(F)c2)CN1 (configuration not stated) | 92
O=C(/C=C/c1cccc(NC(=O)/C=C/c2ccc3c(c2)OCO3)c1)NO | 128
c1ccc2c(c1)C1CC2(CC2CN(CC3CC3)CCO2)c2ccccc21 (configuration not stated) | 88 to 90
CC(=O)c1ccc(-c2cccc(-c3nc(C(C)C)[nH]c3-c3cccc(C)n3)c2)cc1 | 84 to 87
CC(C)(C)c1ccc(CCCCC(O)C2CCCCC2)cc1NC(=O)CC1c2ccccc2Oc2ccccc21 (configuration not stated) | 147 to 148
O=C(NCC12CC3CC(CC(C3)C1)C2)c1cc(-c2cc(F)cnc2N2CCC(C(=O)O)CC2)ccc1Cl | 130 to 135
Cc1ccccc1Cn1[nH]c(N)cc1=O | 138
COC(=O)c1cccc(Sc2ccc([N+](=O)[O-])cc2)c1 | 98 to 100

SMILES | melting point [°C]
COc1cccc(NN)n1 | 30 to 40
O=S(=O)(c1cccnc1)N1CCC(Nc2nc(Nc3cccc(C(F)(F)F)c3)nc(OCC(F)(F)F)n2)CC1 | 222 to 224
Cc1ccc(S(=O)(=O)Nc2cccc3cc(C(=O)Nc4ccccc4)[nH]c23)cc1 | 247 to 248
N#CC(=Cc1ccc(O)c(O)c1)C(=O)O | 240
O=C(O)CC1CCC(N2CCN(CCNc3ccncc3)CC2)CC1 (configuration not stated) | 220
Cc1cc(C(=O)NCc2cccc3c2C(=O)N(C2CCC(=O)NC2=O)C3=O)no1 (configuration not stated) | 207 to 209
COC(=O)C1CCN(S(=O)(=O)c2ccc(Cl)c(COc3cccc4c(-n5ccnc5)cc(C)nc34)c2Cl)C1 (configuration not stated) | 180
O=C1c2ccccc2C(=O)N1CCCc1cn(C(c2ccccc2)(c2ccccc2)c2ccccc2)cn1 | 211 to 214
Cc1nc(-n2cnn(CC3CC3(F)F)c2=O)sc1C(N)=O (configuration not stated) | 273 to 275
C(=Cc1ccc(-c2cc3cc(-c4ccccc4)ccc3o2)cc1)c1ccc(-c2ccccc2)cc1 | 356 to 358
O=C(N[C@H]1CC[C@H](CCN2CCN(c3nccc4c3OCC4)CC2)CC1)c1ccc(-c2cccnc2)cc1 | 235
CN1CCC(OC2c3ccccc3CCn3c2nc(I)c3C(N)=O)CC1 (configuration not stated) | 85
COc1ccc(NC(=O)C(=O)N2CCC(Cc3ccccc3)CC2)cc1 | 144 to 146
CCCCC/C(=C\C=C\C(=O)O)c1ccc(OC)cc1 | 86.5 to 87.5
Cc1ccccc1Nc1nc(N(C)c2ccccc2)c2cccc(OCCO)c2n1 | 158 to 160
Cc1ccccc1NC(=O)c1ccc(C(=O)N2Cc3ccccc3Cc3ccccc32)cc1 | 214 to 216
O/N=C(\Sc1ccccc1)C(F)(F)F | 64 to 66
CCCCCCOc1cccc(C[C@H](NC(=O)c2cccc(-c3ncco3)c2)[C@H](O)CNCc2cccc(CC)c2)c1 | 117 to 120
